Experimental data published in patent US20230233569A1 (Revolution Medicines, Inc., priority 2020, published 2023).
“And” between values parts separate entries of the source, which are not always exact repeats. Identical values can stand only once. Like-named read-outs stand apart in the source and are kept apart here.

What was measured:
Capan-1 (K-Ras G12V) = assay: CellTiter-Glo cell viability assay, 5-day treatment; format: cell-based; conditions: Homo sapiens, CAPAN-1, 120 h, 5-day treatment; read-out: Capan-1 Cell Viability assay data (K-Ras G12V, IC50)
How it was run: (§1)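 Viability is read as luminescence on day 5 after direct compound addition to plated cells, following about 30 minutes' room-temperature equilibration. Each signal is scaled to mean DMSO as 100%.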

NCI-H358 (K-Ras G12C) = assay: as above; format: cell-based; conditions: Homo sapiens, NCI-H358, 120 h, 5-day treatment; read-out: H358 Cell Viability assay data (K-Ras G12C, IC50)
How it was run: as §1

KRAS G12C = KRAS G12C (Homo sapiens, UniProt P01116+P62937, G12C); assay: Disruption of BRAF RBD interaction with Ras (FRET / MOA assay, with Cyclophilin A); format: biochemical
How it was run: (§2)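 First, compounds at a ten-point threefold dilution series (highest final concentration 30 μM) were incubated with nucleotide-loaded K-Ras, Cyclophilin A and BRAF RBD for 3 h at 25 °C. Next, detection antibodies were added for 1.5 h. Finally, IC50 was calculated from TR-FRET ratio decreases against DMSO controls.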

KRAS G12D = KRAS G12D (Homo sapiens, UniProt P01116+P62937, G12D); assay: as above; format: biochemical
How it was run: as §2

KRAS G12S = KRAS G12S (Homo sapiens, UniProt P01116+P62937, G12S); assay: as above; format: biochemical
How it was run: as §2

KRAS G12V = KRAS G12V (Homo sapiens, UniProt P01116+P62937, G12V); assay: as above; format: biochemical
How it was run: as §2

KRAS G13C = KRAS G13C (Homo sapiens, UniProt P01116+P62937, G13C); assay: as above; format: biochemical
How it was run: as §2

KRAS G13D = KRAS G13D (Homo sapiens, UniProt P01116+P62937, G13D); assay: as above; format: biochemical
How it was run: as §2

KRAS WT = KRAS WT (Homo sapiens, UniProt P01116+P62937); assay: as above; format: biochemical
How it was run: as §2

NRAS G12C = NRAS G12C (Homo sapiens, UniProt P01111+P62937, G12C); assay: as above; format: biochemical
[1] = read-out: KRAS G12C FRET data, IC50
[2] = read-out: KRAS G12D FRET data, IC50
[3] = read-out: KRAS G12S FRET data, IC50
[4] = KRAS G12V, read-out: KRAS G12V FRET data IC50
[5] = read-out: KRAS G13C FRET data, IC50
[6] = KRAS G13D, read-out: KRAS G13D FRET data IC50
[7] = KRAS WT, read-out: KRAS WT FRET data IC50
[8] = NRAS G12C, read-out: NRAS G12C FRET data IC50

Sequence of KRAS G13D (P01116 1-169 isoform P01116-2 G13D limits assumed): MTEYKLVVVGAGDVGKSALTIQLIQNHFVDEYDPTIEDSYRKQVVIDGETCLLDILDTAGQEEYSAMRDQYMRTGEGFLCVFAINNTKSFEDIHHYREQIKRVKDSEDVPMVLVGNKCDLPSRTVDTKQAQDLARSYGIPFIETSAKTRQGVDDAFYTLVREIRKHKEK
Sequence of KRAS G13D (P62937 whole entry): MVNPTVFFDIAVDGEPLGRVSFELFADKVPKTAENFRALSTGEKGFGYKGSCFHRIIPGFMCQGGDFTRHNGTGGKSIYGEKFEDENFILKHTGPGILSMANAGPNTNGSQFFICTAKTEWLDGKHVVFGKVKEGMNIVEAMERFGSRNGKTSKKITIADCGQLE
Sequence of NRAS G12C (P01111 whole entry G12C): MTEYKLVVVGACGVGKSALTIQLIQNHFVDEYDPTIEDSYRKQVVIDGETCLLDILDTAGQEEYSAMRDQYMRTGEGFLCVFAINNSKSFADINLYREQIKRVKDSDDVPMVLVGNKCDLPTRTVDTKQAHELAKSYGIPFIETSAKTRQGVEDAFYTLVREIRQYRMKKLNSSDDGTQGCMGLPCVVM
Sequence of NRAS G12C (P62937 whole entry): as the sequence (P62937 whole entry) above
Sequence of KRAS G12D (P01116 1-169 isoform P01116-2 G12D limits assumed): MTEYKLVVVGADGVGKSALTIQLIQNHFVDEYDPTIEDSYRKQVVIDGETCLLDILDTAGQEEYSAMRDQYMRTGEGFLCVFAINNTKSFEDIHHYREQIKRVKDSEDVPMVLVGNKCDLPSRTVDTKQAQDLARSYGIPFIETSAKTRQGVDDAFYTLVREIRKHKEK
Sequence of KRAS G12D (P62937 whole entry): as the sequence (P62937 whole entry) above
Sequence of KRAS G12V (P01116 1-169 isoform P01116-2 G12V limits assumed): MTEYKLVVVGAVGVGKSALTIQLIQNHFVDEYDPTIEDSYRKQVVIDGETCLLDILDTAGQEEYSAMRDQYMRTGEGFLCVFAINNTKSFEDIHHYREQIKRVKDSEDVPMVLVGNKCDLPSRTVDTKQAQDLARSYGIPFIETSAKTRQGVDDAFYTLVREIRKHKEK
Sequence of KRAS G12V (P62937 whole entry): as the sequence (P62937 whole entry) above
Sequence of KRAS G12S (P01116 1-169 isoform P01116-2 G12S limits assumed): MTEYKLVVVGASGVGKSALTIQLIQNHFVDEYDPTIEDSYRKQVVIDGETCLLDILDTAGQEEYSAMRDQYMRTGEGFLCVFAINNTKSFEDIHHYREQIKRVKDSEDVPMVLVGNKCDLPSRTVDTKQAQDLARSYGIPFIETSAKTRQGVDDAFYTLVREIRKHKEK
Sequence of KRAS G12S (P62937 whole entry): as the sequence (P62937 whole entry) above
Sequence of KRAS G12C (P01116 1-169 isoform P01116-2 G12C): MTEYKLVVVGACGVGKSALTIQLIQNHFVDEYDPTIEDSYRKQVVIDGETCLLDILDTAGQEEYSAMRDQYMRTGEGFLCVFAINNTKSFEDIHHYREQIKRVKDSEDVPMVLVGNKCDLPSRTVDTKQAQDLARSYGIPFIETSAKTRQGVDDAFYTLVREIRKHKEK
Sequence of KRAS G12C (P62937 whole entry): as the sequence (P62937 whole entry) above
Sequence of KRAS WT (P01116 1-169 isoform P01116-2 limits assumed): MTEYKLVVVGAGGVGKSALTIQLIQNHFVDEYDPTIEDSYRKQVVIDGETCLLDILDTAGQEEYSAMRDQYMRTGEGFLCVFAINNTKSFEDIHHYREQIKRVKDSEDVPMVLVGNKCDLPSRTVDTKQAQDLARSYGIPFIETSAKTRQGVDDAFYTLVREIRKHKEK
Sequence of KRAS WT (P62937 whole entry): as the sequence (P62937 whole entry) above
Sequence of KRAS G13C (P01116 1-169 isoform P01116-2 G13C): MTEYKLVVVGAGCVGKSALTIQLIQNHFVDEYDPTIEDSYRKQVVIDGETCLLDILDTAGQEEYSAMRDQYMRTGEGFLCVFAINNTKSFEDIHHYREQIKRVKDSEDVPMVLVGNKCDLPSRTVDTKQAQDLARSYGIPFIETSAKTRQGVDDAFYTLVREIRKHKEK
Sequence of KRAS G13C (P62937 whole entry): as the sequence (P62937 whole entry) above

Row | SMILES | IC50 (Capan-1 (K-Ras G12V)) [µM] | IC50 (NCI-H358 (K-Ras G12C)) [µM] | IC50 (KRAS G12C; [1]) | IC50 (KRAS G12D; [2]) | IC50 (KRAS G12S; [3]) | IC50 (KRAS G12V; [4]) | IC50 (KRAS G13C; [5]) [µM] | IC50 (KRAS G13D; [6]) [µM] | IC50 (KRAS WT; [7]) | IC50 (NRAS G12C; [8]) [µM] | IC50 (KRAS G12C; KRAS G12C FRET data, IC50) [µM] | IC50 (KRAS G12D; KRAS G12D FRET data, IC50) [µM] | IC50 (KRAS G12S; KRAS G12S FRET data, IC50) [µM] | IC50 (KRAS G12V; KRAS G12V FRET data IC50, KRAS G12V) [µM] | IC50 (KRAS G13C; KRAS G13C FRET data, IC50) [µM] | IC50 (KRAS G13D; KRAS G13D FRET data IC50, KRAS G13D) [µM] | IC50 (KRAS WT; KRAS WT FRET data IC50, KRAS WT) [µM] | IC50 (NRAS G12C; NRAS G12C FRET data IC50, NRAS G12C) [µM]
1 | CCn1c(-c2cccnc2[C@H](C)OC)c2c3cc(ccc31)-c1cc(O)cc(c1)C[C@H](NC(=O)[C@H](C(C)C)N(C)C(=O)C1CC13CCNC3)C(=O)N1CCC[C@H](N1)C(=O)OCC(C)(C)C2 (stereo partly shown) [Example A148] | 1 to 10 | 1 to 10 | 0.01 to 0.1 µM | 0.01 to 0.1 µM | 0.01 to 0.1 µM | 0.1 to 1 µM | 0.01 to 0.1 | 0.01 to 0.1 | 0.01 to 0.1 µM | 0.01 to 0.1 | – | – | – | – | – | – | – | –
2 | CCn1c(-c2cccnc2[C@H](C)OC)c2c3cc(ccc31)-c1cc(O)cc(c1)C[C@H](NC(=O)[C@H](C(C)C)N(C)C(=O)C13CNCC1C3)C(=O)N1CCC[C@H](N1)C(=O)OCC(C)(C)C2 (stereo partly shown) [Example A155] | 1 to 10 | 0.1 to 1 | 0.01 to 0.1 µM | 0.1 to 1 µM | 0.1 to 1 µM | 0.1 to 1 µM | 0.01 to 0.1 | 0.01 to 0.1 | 0.01 to 0.1 µM | 0.1 to 1 | – | – | – | – | – | – | – | –
3 | CCn1c(-c2cccnc2[C@H](C)OC)c2c3cc(ccc31)-c1cc(O)cc(c1)C[C@H](NC(=O)[C@H](C(C)C)N(C)C(=O)C1CC13CC3)C(=O)N1CCC[C@H](N1)C(=O)OCC(C)(C)C2 (stereo partly shown) [Example A156] | 0.01 to 0.1 | 0.01 to 0.1 | 0.01 to 0.1 µM | 0.1 to 1 µM | 0.01 to 0.1 µM | 0.01 to 0.1 µM | 0.01 to 0.1 | 0.1 to 1 | 0.01 to 0.1 µM | 0.01 to 0.1 | – | – | – | – | – | – | – | –
4 | CCn1c(-c2cccnc2[C@H](C)OC)c2c3cc(ccc31)-c1cc(O)cc(c1)C[C@H](NC(=O)[C@H](C(C)C)N(C)C(=O)[C@@H]1CC1(C)C)C(=O)N1CCC[C@H](N1)C(=O)OCC(C)(C)C2 [Example A157] | 0.1 to 1 | 0.1 to 1 | 0.01 to 0.1 µM | 0.1 to 1 µM | 0.1 to 1 µM | 0.1 to 1 µM | 0.1 to 1 | 0.1 to 1 | 0.01 to 0.1 µM | 0.01 to 0.1 | – | – | – | – | – | – | – | –
5 | CCn1c(-c2cccnc2[C@H](C)OC)c2c3cc(ccc31)-c1cc(O)cc(c1)C[C@H](NC(=O)[C@H](C(C)C)N(C)C(=O)[C@H]1CC1(F)F)C(=O)N1CCC[C@H](N1)C(=O)OCC(C)(C)C2 [Example A166] | 0.1 to 1 | 0.1 to 1 | 0.01 to 0.1 µM | 0.1 to 1 µM | 0.1 to 1 µM | 0.1 to 1 µM | 0.01 to 0.1 | 0.1 to 1 | 0.01 to 0.1 µM | 0.01 to 0.1 | – | – | – | – | – | – | – | –
6 | CCn1c(-c2cccnc2[C@H](C)OC)c2c3cc(ccc31)-c1cc(O)cc(c1)C[C@H](NC(=O)[C@H](C(C)C)N(C)C(=O)[C@@H]1CC1(F)F)C(=O)N1CCC[C@H](N1)C(=O)OCC(C)(C)C2 [Example A167] | 0.1 to 1 | 0.1 to 1 | – | – | – | – | – | – | – | – | 0.1 to 1 | 0.1 to 1 | 0.1 to 1 | 0.1 to 1 | 0.1 to 1 | 0.1 to 1 | 0.1 to 1 | 0.1 to 1
7 | CCn1c(-c2cccnc2[C@H](C)OC)c2c3cc(ccc31)-c1cc(O)cc(c1)C[C@H](NC(=O)[C@H](C(C)C)N(C)C(=O)C1(N)CC1)C(=O)N1CCC[C@H](N1)C(=O)OCC(C)(C)C2 [Example A168] | 0.1 to 1 | 0.1 to 1 | 0.01 to 0.1 µM | 0.1 to 1 µM | 0.1 to 1 µM | 0.1 to 1 µM | 0.01 to 0.1 | 0.1 to 1 | 0.01 to 0.1 µM | 0.01 to 0.1 | – | – | – | – | – | – | – | –
8 | CCn1c(-c2cccnc2[C@H](C)OC)c2c3cc(ccc31)-c1cc(O)cc(c1)C[C@H](NC(=O)[C@H](C(C)C)N(C)C(=O)N1CC(N(C)C)C1)C(=O)N1CCC[C@H](N1)C(=O)OCC(C)(C)C2 [Example A171] | 0.1 to 1 | 0.1 to 1 | 0.1 to 1 µM | 0.1 to 1 µM | 0.1 to 1 µM | 0.1 to 1 µM | 0.01 to 0.1 | 0.1 to 1 | 0.1 to 1 µM | 0.1 to 1 | – | – | – | – | – | – | – | –
9 | CCn1c(-c2cccnc2[C@H](C)OC)c2c3cc(ccc31)-c1cc(O)cc(c1)C[C@H](NC(=O)C(C1CC1)C1CC1)C(=O)N1CCC[C@H](N1)C(=O)OCC(C)(C)C2 [Example A184] | 1 to 10 | 0.1 to 1 | 0.1 to 1 µM | 1 to 10 µM | 0.1 to 1 µM | 0.1 to 1 µM | 0.01 to 0.1 | 0.1 to 1 | 0.1 to 1 µM | 0.1 to 1 | – | – | – | – | – | – | – | –
10 | CCn1c(-c2cccnc2[C@H](C)OC)c2c3cc(ccc31)-c1cc(O)cc(c1)C[C@H](NC(=O)[C@H](C(C)C)N(C)C(=O)O[C@H]1CCOC1)C(=O)N1CCC[C@H](N1)C(=O)OCC(C)(C)C2 [Example A209] | 0.1 to 1 | 0.1 to 1 | 0.1 to 1 µM | 0.1 to 1 µM | 0.1 to 1 µM | 0.1 to 1 µM | 0.1 to 1 | 0.1 to 1 | 0.1 to 1 µM | 0.1 to 1 | – | – | – | – | – | – | – | –
11 | CCn1c(-c2cccnc2[C@H](C)OC)c2c3cc(ccc31)-c1cc(O)cc(c1)C[C@H](NC(=O)[C@H](C(C)C)N(C)C(=O)C1NCCC1C(C)C)C(=O)N1CCC[C@H](N1)C(=O)OCC(C)(C)C2 (stereo partly shown) [Example A227] | > 10 | 1 to 10 | 0.1 to 1 µM and 0.01 to 0.1 µM | 0.1 to 1 µM and 0.01 to 0.1 µM | 0.1 to 1 µM and 0.01 to 0.1 µM | 0.1 to 1 µM and 1 to 10 µM | 0.01 to 0.1 | 0.01 to 0.1 | 0.1 to 1 µM and 0.01 to 0.1 µM | 0.1 to 1 | – | – | – | – | – | – | – | –
12 | CCn1c(-c2cccnc2[C@H](C)OC)c2c3cc(ccc31)-c1cc(O)cc(c1)C[C@H](NC(=O)[C@H](C(C)C)N(C)C(=O)C1NCCC13CC3)C(=O)N1CCC[C@H](N1)C(=O)OCC(C)(C)C2 (stereo partly shown) [Example A228] | 0.1 to 1 | 0.1 to 1 | 0.01 to 0.1 µM | 0.01 to 0.1 µM | 0.01 to 0.1 µM | 0.1 to 1 µM | 0.01 to 0.1 | 0.01 to 0.1 | 0.01 to 0.1 µM | 0.01 to 0.1 | – | – | – | – | – | – | – | –
13 | CCn1c(-c2cccnc2[C@H](C)OC)c2c3cc(ccc31)-c1cc(O)cc(c1)C[C@H](NC(=O)[C@H](C(C)C)N(C)C(=O)C1(CO)CC1)C(=O)N1CCC[C@H](N1)C(=O)OCC(C)(C)C2 [Example A232] | 0.1 to 1 | 0.1 to 1 | 0.1 to 1 µM | 0.1 to 1 µM | 0.1 to 1 µM | 0.1 to 1 µM | 0.1 to 1 | 0.1 to 1 | 0.1 to 1 µM | 0.1 to 1 | – | – | – | – | – | – | – | –
